Patent US20260034094A1, “COMPOSITIONS AND METHODS FOR INDUCING FERROPTOSIS” (Kojin Therapeutics, Inc., priority 2022, published 2026)
“And” between values parts separate entries of the source, which are not always exact repeats. Equal values may be shown once. Read-outs that look alike come from different tables or passages of the source.

How the values were obtained:
RKN cells = experiment: RKN cell profiling assay (cell viability, CellTiter-Glo); type: cell-based; conditions: read-out: Cell Killing EC50
Summary of the method: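 Viability read by CellTiter-Glo luminescence after 96 h compound exposure (0.5% DMSO final) of cells plated at 1,000/well in 10% FBS F-12 and allowed 24 h attachment. Four-parameter fits gave EC50; rescue arms used ferrostatin-1, 1.5 μM, present from seeding.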

human recombinant GCL = human recombinant GCL (Homo sapiens (Human), UniProt P48506); experiment: GCL enzyme profiling assay (ADP-Glo luminescence); type: biochemical
Sequence of human recombinant GCL (P48506 whole entry): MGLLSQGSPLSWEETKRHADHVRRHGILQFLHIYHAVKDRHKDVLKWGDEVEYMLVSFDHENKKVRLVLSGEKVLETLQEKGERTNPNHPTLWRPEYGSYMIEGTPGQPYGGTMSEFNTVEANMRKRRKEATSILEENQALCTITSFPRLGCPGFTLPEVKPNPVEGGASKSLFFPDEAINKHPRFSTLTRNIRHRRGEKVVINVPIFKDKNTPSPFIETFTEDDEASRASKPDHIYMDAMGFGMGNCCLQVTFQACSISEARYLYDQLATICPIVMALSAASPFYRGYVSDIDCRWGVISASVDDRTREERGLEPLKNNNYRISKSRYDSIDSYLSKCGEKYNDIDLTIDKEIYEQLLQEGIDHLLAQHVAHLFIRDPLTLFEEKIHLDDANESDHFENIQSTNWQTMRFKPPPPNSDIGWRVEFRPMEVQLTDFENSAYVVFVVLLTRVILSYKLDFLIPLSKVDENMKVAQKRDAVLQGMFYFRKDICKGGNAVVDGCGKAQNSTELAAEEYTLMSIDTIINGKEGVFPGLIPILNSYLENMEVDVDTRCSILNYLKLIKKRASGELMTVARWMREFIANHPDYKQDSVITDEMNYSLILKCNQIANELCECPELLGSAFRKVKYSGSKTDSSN
Summary of the method: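 IC50 fitted by four-parameter logistic to luminescent ADP formation (ADP-Glo). Reaction at room temperature in HEPES pH 7.5 with 30 mM MgCl2, 0.2% F-127, 1% DMSO; 5 nM GCL and 0.6 mM ATP preincubated 1 h before adding 1 mM glutamate plus 1.2 mM α-aminobutyrate for 2 h.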

[1] = human recombinant GCL, ADP-Glo, read-out: GCL IC50
[2] = human recombinant GCL 5 nM, 1 h preincubation with ATP, read-out: GCL IC50

SMILES	IC50 (human recombinant GCL; [1]) [mM]	IC50 (human recombinant GCL; [2])	IC50 (human recombinant GCL; human recombinant GCL 5 nM, 1 h preincubation with ATP, read-out: GCL IC50 (mM), individual values in parentheses)	EC50 (RKN cells; cell viability) [µM]	EC50 (RKN cells; 96 h, 96 h exposure) [µM]
N=[S@@](=O)(CC[C@H](N)C(=O)O)CC[C@@H](c1ccccc1)C(F)(F)F [Compound 61]	–	≤ 0.02 mM	–	–	< 1000
N=[S@](=O)(CCCC(F)(F)F)CC[C@H](N)C(=O)O [Compound 139, (S)-2-amino-4-((S)-4,4,4-trifluorobutylsulfonimidoyl)butanoic acid]	–	≤ 0.02 mM	–	–	< 1000
CC(C)(C)CC[S@](=N)(=O)CC[C@H](N)C(=O)Nc1cccnc1 (single isomer, unassigned) [Compound 103]	–	> 2 mM	–	–	< 1000
CCCCOC(=O)[C@@H](N)CCS(=N)(=O)CCc1ccccc1C(F)(F)F (stereo partly drawn) [Compound 94]	–	0.02 to 2 mM	–	–	< 1000
N=S(=O)(CCc1cn[nH]c1)CC[C@H](N)C(=O)O (stereo partly drawn) [Compound 8]	–	0.02 to 2 mM	–	–	≥ 1000
CC(C)(C)CCS(=N)(=O)CC[C@H](N)C(=O)Nc1ccncc1 (stereo partly drawn) [Compound 127]	–	> 2 mM	–	–	< 1000
N=S(=O)(CC[C@H](N)C(=O)O)CCC1(c2ccccc2)CCC1 (stereo partly drawn) [Compound 62]	–	≤ 0.02 mM	–	–	< 1000
Cc1cccc(C(C)(C)CCS(=N)(=O)CC[C@H](N)C(=O)O)c1 (stereo partly drawn) [Compound 57]	–	0.02 to 2 mM	–	–	≥ 1000
N=S(=O)(CCCC(F)(F)F)CC[C@H](N)c1ncon1 (stereo partly drawn) [Compound 203, (1S)-1-(1,2,4-oxadiazol-3-yl)-3-(4,4,4-trifluorobutylsulfonimidoyl)propan-1-amine]	–	> 2 mM	–	–	≥ 1000
CC(C)(C#N)CCS(=N)(=O)CC[C@H](N)C(=O)O (stereo partly drawn) [Compound 171]	–	0.02 to 2 mM	–	–	≥ 1000
COCCOC(=O)[C@@H](N)CCS(=N)(=O)CCCC(F)(F)F (stereo partly drawn) [Compound 83]	–	0.02 to 2 mM	–	–	< 1000
N=S(=O)(CCCC(F)(F)F)CC[C@H](N)c1ncno1 (stereo partly drawn) [Compound 204, (1S)-1-(1,2,4-oxadiazol-5-yl)-3-(4,4,4-trifluorobutylsulfonimidoyl)propan-1-amine]	–	> 2 mM	–	–	≥ 1000
Cc1cccc(CCS(=N)(=O)CC[C@H](N)C(=O)O)c1C (stereo partly drawn) [Compound 27]	–	0.02 to 2 mM	–	–	≥ 1000
N=S(=O)(CCC(N)C(F)(F)F)CC[C@H](N)C(=O)O (stereo partly drawn) [Compound 210, (2S)-2-amino-4-(3-amino-4,4,4-trifluorobutylsulfonimidoyl)butanoic acid]	–	0.02 to 2 mM	–	–	< 1000
N=S(=O)(CCCC(F)F)CC[C@H](N)C(=O)O (stereo partly drawn) [Compound 169]	–	≤ 0.02 mM and 0.02 to 2 mM	0.0102 mM and 0.1 mM	–	< 1000
N=S(=O)(CC[C@H](N)C(=O)O)CCC(O)(c1nccs1)C(F)(F)F (stereo partly drawn) [Compound 344]	≤ 0.02	–	–	< 1000	–
N=S(=O)(CC[C@H](N)C(=O)O)CCC1(O)[C@H]2C[C@@H]3C[C@@H](C[C@H]1C3)C2 (stereo partly drawn) [Compound 302]	0.02 to 2	–	–	≥ 1000	–
CC(C)OCCCS(=N)(=O)CC[C@H](N)C(=O)O (stereo partly drawn) [Compound 162]	–	0.02 to 2 mM	–	–	≥ 1000
CCCCOC(=O)[C@@H](N)CCS(=N)(=O)CCC(C)C (stereo partly drawn) [Compound 95]	–	0.02 to 2 mM	–	–	< 1000
N=S(=O)(CC[C@H](N)C(=O)O)CCC(O)(c1nc2ccccc2[nH]1)C(F)(F)F (stereo partly drawn) [Compound 343]	0.02 to 2	–	–	< 1000	–
COC(CC[S@](=N)(=O)CC[C@H](N)C(=O)O)C(F)(F)F (stereo partly drawn) [Compound 178]	–	≤ 0.02 mM	–	–	< 1000
COC(=O)C(CCS(=N)(=O)CC[C@H](N)C(=O)O)C(F)(F)F (stereo partly drawn) [Compound 305]	≤ 0.02	–	–	≥ 1000	–
N=S(=O)(CCC1CCCC1)CC[C@H](N)C(=O)O (stereo partly drawn) [Compound 141]	–	≤ 0.02 mM	–	–	< 1000
N=[S@](=O)(CC[C@H](N)C(=O)O)CCC(O)(c1ccccc1)C(F)(F)F (single isomer, unassigned) [Compound 345]	> 2	–	–	≥ 1000	–
COC(CC[S@@](=N)(=O)CC[C@H](N)C(=O)O)C(F)(F)F (stereo partly drawn) [Compound 176]	–	> 2 mM	–	–	≥ 1000
N=S(=O)(CCC1CCCCC1)CC[C@H](N)C(=O)O (stereo partly drawn) [Compound 142]	–	≤ 0.02 mM	–	–	≥ 1000
N=S(=O)(CC[C@H](N)C(=O)O)CCC(O)(c1ccc(OC(F)(F)F)cc1)C(F)(F)F (stereo partly drawn) [Compound 330, (2S)-2-amino-4-(4,4,4-trifluoro-3-hydroxy-3-(4-(trifluoromethoxy)phenyl)butylsulfonimidoyl)butanoic acid]	≤ 0.02	–	–	≥ 1000	–
COC(=O)[C@@H](N)CCS(=N)(=O)CCc1cnccn1 (stereo partly drawn) [Compound 67, (2S)-methyl 2-amino-4-(2-(pyrazin-2-yl)ethylsulfonimidoyl)butanoate]	–	> 2 mM	–	–	≥ 1000
N=S(=O)(CCCC(F)(F)F)CC[C@H](N)C(=O)OC1CCOCC1 (stereo partly drawn) [Compound 84]	–	0.02 to 2 mM	–	–	< 1000

More lines, main results first:

IC50 (human recombinant GCL; [1]) [mM]	IC50 (human recombinant GCL; [2])	IC50 (human recombinant GCL; human recombinant GCL 5 nM, 1 h preincubation with ATP, read-out: GCL IC50 (mM), individual values in parentheses)	SMILES	EC50 (RKN cells; cell viability) [µM]	EC50 (RKN cells; 96 h, 96 h exposure) [µM]
≤ 0.02	–	–	N=S(=O)(CC[C@H](N)C(=O)O)CCC(O)(c1ccc(-c2ccccc2)cn1)C(F)(F)F (stereo partly drawn) [Compound 459, (2S)-2-amino-4-(4,4,4-trifluoro-3-hydroxy-3-(5-phenylpyridin-2-yl)butylsulfonimidoyl)butanoic acid]	< 1000	–
≤ 0.02	–	–	N=S(=O)(CC[C@H](N)C(=O)O)CCC(O)(c1ccccn1)C(F)(F)F (stereo partly drawn) [Compound 350, (2S)-2-amino-4-(4,4,4-trifluoro-3-hydroxy-3-(pyridin-2-yl)butylsulfonimidoyl)butanoic acid]	< 1000	–
0.02 to 2	–	–	N=S(=O)(CC[C@H](N)C(=O)O)CCC1(C(F)(F)F)OCc2ccccc21 (stereo partly drawn) [compound 511]	< 1000	–
0.02 to 2	–	–	CCOC(=O)[C@@H](N)CC[S@@](=N)(=O)CC[C@](O)(c1ccccc1)C(F)(F)F [Compound 488, ethyl (S)-2-amino-4-((R,3S)-4,4,4-trifluoro-3-hydroxy-3-phenylbutylsulfonimidoyl)butanoate]	< 1000	–
≤ 0.02	–	–	N=S(=O)(CCC(C1CCCCC1)C(F)(F)F)CC[C@H](N)C(=O)O (stereo partly drawn) [Compound 381, (2S)-2-amino-4-(3-cyclohexyl-4,4,4-trifluorobutylsulfonimidoyl)butanoic acid]	≥ 1000	–
≤ 0.02	–	–	COc1ccccc1C(CCS(=N)(=O)CC[C@H](N)C(=O)O)C(F)(F)F (stereo partly drawn) [Compound 398]	< 1000	–
0.02 to 2	–	–	N=S(=O)(CC[C@H](N)C(=O)O)CCC(O)(c1ccc(-c2cnco2)cn1)C(F)(F)F (stereo partly drawn) [Compound 480]	≥ 1000	–
≤ 0.02	–	–	N=S(=O)(CC[C@H](N)C(=O)O)CCC(O)(c1ccc(NC(=O)c2ccsc2)cc1)C(F)(F)F (stereo partly drawn) [Compound 446]	< 1000	–
0.02 to 2	–	–	N=S(=O)(CCC(n1cccn1)C(F)(F)F)CC[C@H](N)C(=O)O (stereo partly drawn) [Compound 411]	< 1000	–
0.02 to 2	–	–	CC(C)(C)OC(=O)[C@@H](N)CC[S@@](=N)(=O)CC[C@@H](O)C(F)(F)F [Compound 491, tert-butyl (S)-2-amino-4-((R,3R)-4,4,4-trifluoro-3-hydroxybutylsulfonimidoyl)butanoate]	< 1000	–
0.02 to 2	–	–	N[C@H]1CC[S@@](=O)(CC[C@H](O)C(F)(F)F)=NC1=O [Compound 496, (1R,4S)-4-amino-1-((S)-4,4,4-trifluoro-3-hydroxybutyl)-5,6-dihydro-116,2-thiazin-3 (4H)-one 1-oxide]	< 1000	–
≤ 0.02	–	–	N=S(=O)(CC[C@H](N)C(=O)O)CCC(O)(c1ccc(-c2ccc(Cl)cc2Cl)cc1OC(F)(F)F)C(F)(F)F (stereo partly drawn) [Compound 449]	≥ 1000	–
0.02 to 2	–	–	N=S(=O)(CC[C@H](N)C(=O)O)CCC(O)(c1ccncc1)C(F)(F)F (stereo partly drawn) [Compound 362]	≥ 1000	–
≤ 0.02	–	–	N=S(=O)(CC[C@H](N)C(=O)O)CCC(O)(c1ccc(-c2ccc(O)c(F)c2)cc1)C(F)(F)F (stereo partly drawn) [Compound 453]	≥ 1000	–
≤ 0.02	–	–	Cc1cnn(C(CCS(=N)(=O)CC[C@H](N)C(=O)O)C(F)(F)F)n1 (stereo partly drawn) [Compound 406]	< 1000	–
≤ 0.02	–	–	N=S(=O)(CC[C@H](N)C(=O)O)CCC(O)(c1ccc(-c2ccccc2)cc1)C(F)(F)F (stereo partly drawn) [Compound 424, (2S)-4-(3-([1,1′-biphenyl]-4-yl)-4,4,4-trifluoro-3-hydroxybutylsulfonimidoyl)-2-aminobutanoic acid]	< 1000	–
≤ 0.02	–	–	N=S(=O)(CC[C@H](N)C(=O)O)CCC(O)(c1nsc2ccccc12)C(F)(F)F (stereo partly drawn) [Compound 375]	< 1000	–
≤ 0.02	–	–	CC(C)C(O)(CCS(=N)(=O)CC[C@H](N)C(=O)O)C(F)(F)F (stereo partly drawn) [Compound 353]	≥ 1000	–
≤ 0.02	–	–	Cc1cc(Cl)ccc1-c1ccc(C(O)(CCS(=N)(=O)CC[C@H](N)C(=O)O)C(F)(F)F)nc1 (stereo partly drawn) [Compound 478]	< 1000	–
0.02 to 2	–	–	N=S(=O)(CCC(n1ccc(-c2ccccn2)n1)C(F)(F)F)CC[C@H](N)C(=O)O (stereo partly drawn) [Compound 415]	≥ 1000	–
≤ 0.02	–	–	CC(C)(C)c1cc(-c2ccc(C(O)(CCS(=N)(=O)CC[C@H](N)C(=O)O)C(F)(F)F)cc2)ccc1O (stereo partly drawn) [Compound 456]	≥ 1000	–
≤ 0.02	–	–	N[C@@H](CCS(=O)(=O)CCC(O)(c1ccc(-c2ccc(Cl)cc2Cl)cn1)C(F)(F)F)C(=O)O (stereo partly drawn) [Compound 460, (2S)-2-amino-4-[3-[5-(2,4-dichlorophenyl)-2-pyridyl]-4,4,4-trifluoro-3-hydroxy-butyl]sulfonyl-butanoic acid]	< 1000	–
≤ 0.02	–	–	N=S(=O)(CC[C@H](N)C(=O)O)CCC(O)(c1cc2cc[nH]c2cn1)C(F)(F)F (stereo partly drawn) [Compound 360]	< 1000	–
